Data from US7335671B2, “Arylcycloalkyl-substituted alkanoic acid derivatives, processes for their preparation and their use as pharmaceuticals” (Sanofi-Aventis Deutschland GmbH, priority 2003, dated 2008).

Target: T1, PPARalpha (Homo sapiens, UniProt Q07869)
T1 construct: human PPARalpha receptor (amino acids S167-Y468); expressed in transfected cells; host or cells: HEK (human embryo kidney) cells, stably transfected; pcDNA3 vector, CMV promoter
T1 sequence (Q07869 167-468): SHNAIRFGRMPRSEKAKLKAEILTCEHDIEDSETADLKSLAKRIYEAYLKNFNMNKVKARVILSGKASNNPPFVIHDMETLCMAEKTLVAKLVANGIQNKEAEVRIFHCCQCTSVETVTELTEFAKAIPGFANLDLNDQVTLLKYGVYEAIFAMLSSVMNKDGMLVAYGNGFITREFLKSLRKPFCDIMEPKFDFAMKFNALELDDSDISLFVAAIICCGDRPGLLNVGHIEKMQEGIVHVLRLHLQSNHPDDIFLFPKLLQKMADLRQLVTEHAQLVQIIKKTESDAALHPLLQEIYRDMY
Test: Cellular PPARalpha assay (stably transfected HEK luciferase reporter cell line)
Format: cell-based
Settings: GR-GAL4-humanPPARalpha-LBD
Method: Determination of EC50 Values of PPAR agonists in the Cellular PPARalpha Assay
The potency of substances which bind to human PPARA and activate in an agonistic manner is analyzed using a stably transfected HEK cell line (HEK =human embryo kidney) which is referred to here as PPARalpha reporter cell line. It contains two genetic elements, a luciferase reporter element (pδM-GAL4-Luc-Zeo) and a PPARalpha fusion protein (GR-GAL4-humanPPARα-LBD) which mediates expression of the luciferase reporter element depending on a PPARalpha ligand. The stably and constitutively expressed fusion protein GR-GAL4-humanPPARalpha-LBD binds in the cell nucleus of the PPARalpha reporter cell line via the GAL4 protein portion to the GAL4 DNA binding motifs 5′-upstream of the luciferase reporter element which is integrated in the genome of the cell line. There is only little expression of the luciferase reporter gene without addition of a PPARalpha ligand if fatty acid-depleted fetal calf serum (cs-FCS) is used in the assay. PPARα ligands bind and activate the PPARα fusion protein and thereby bring about expression of the luciferase reporter gene. The luciferase which is formed can be detected by means of chemiluminescence via an appropriate substrate.
The PPARalpha reporter cell line was prepared in 2 stages. Firstly, the luciferase reporter element was constructed and stably transfected into HEK cells. For this purpose, five binding sites of the yeast transcription factor GAL4 (each 5′-CGGAGTACTGTCCTCCGAG-3′) (SEQ ID No. 1) were cloned in 5′-upstream of a 68 bp-long minimal MMTV promoter (Genbank Accession # V01 175). The minimal MMTV promoter section contains a CCAAT box and a TATA element in order to enable efficient transcription by RNA polymerase 11. The cloning and sequencing of the GAL4-MMTV construct took place in analogy to the description of Sambrook J. et. al. (Molecular cloning, Cold Spring Harbor Laboratory Press, 1989). Then the complete Photinus pyralis gene (Genbank Accession # M15077) was cloned in 3′-downstream of the GAL4-MMTV element. After sequencing, the luceriferase reporter element consisting of five GAL4 binding sites, MMTV promoter and luciferase gene was recloned into a plasmid which confers zeocin resistance in order to obtain the plasmid pδM-GAL4-Luc-Zeo. This vector was transfected into HEK cells in accordance with the statements in Ausubel, F. M. et al. (Current protocols in molecular biology, Vol. 1-3, John Wiley & Sons, Inc., 1995).
In a second step, the PPARalpha fusion protein (GR-GAL4-humanPPARalpha-LBD was introduced into the stable cell clone described. For this purpose, initially the cDNA coding for the N-terminal 76 amino acids of the glucocorticoid receptor (Genbank Accession # P04150) was linked to the cDNA section coding for amino acids 1-147 of the yeast transcription factor GAL4 (Genbank Accession # P04386). The cDNA of the ligand-binding domain of the human PPARalpha receptor (amino acids S167-Y468; Genbank Accession # S74349) was cloned in at the 3′-end of this GR-GAL4 construct. The fusion construct prepared in this way (GR-GAL4-humanPPARalpha-LBD) was recloned into the plasmid pcDNA3 (from Invitrogen) in order to enable constitutive expression therein by the cytomegalovirus promoter. This plasmid was linearized with a restriction endonuclease and stably transfected into the previously described cell clone containing the luciferase reporter element. The finished PPARalpha reporter cell line which contains a luciferase reporter element and constitutively expresses the PPARalpha fusion protein (GR-GAL4-human PPARalpha-LBD) was isolated by selection with zeocin (0.5 mg/ml) and G418 (0.5 mg/ml).
The activity of PPARalpha agonists is determined in a 3-day assay which is described below: […]

Row | SMILES | EC50
1 | CCC(CCO[C@@H]1CCC[C@H](OCc2nc(-c3ccc(F)cc3)oc2C)C1)C(=O)O (stereo partly drawn) [Example 1, 2-Ethyl-4{(1R,3S)-3-[2-(4-fluorophenyl)-5-methyloxazol-4-ylmethoxy]-cyclohexyloxy}butanoic acid] | 41 nM
2 | Cc1cccc(-c2nc(CO[C@H]3CCC[C@@H](OCC4(C(=O)O)CC4)C3)c(C)o2)c1 [Example 5, (1R,3S)-1-[3-(5-methyl-2-m-tolyloxazol-4-ylmethoxy)cyclohexyloxymethyl]cyclo-propanecarboxylic acid] | 69 nM
3 | COCC(CO[C@@H]1CCC[C@H](OCc2nc(-c3cccc(C)c3)oc2C)C1)C(=O)O (stereo partly shown) [Example 8, (1R′,3S′)-2R/S-Methoxymethyl-3-[3-(5-methyl-2-m-tolyloxazol-4-ylmethoxy)cyclo-hexyloxy]propionic acid] | 24 nM
4 | Cc1cccc(-c2nc(CO[C@H]3CCC[C@@H](OCC(OCc4ccc(C(C)(C)C)cc4)C(=O)O)C3)c(C)o2)c1 (stereo partly drawn) [Example 18, 3-[(1R,3S)-3-(5-Methyl-2-m-tolyloxazol-4-ylmethoxy)cyclohexyloxy]-2-(4-tert-butylbenzyloxy)propanoic acid] | 1.5 nM
5 | C#CCOC(CO[C@@H]1CCC[C@H](OCc2nc(-c3cccc(C)c3)oc2C)C1)C(=O)O (stereo partly drawn) [Example 22, 3-[(1R,3S)-3-(5-Methyl-2-m-tolyloxazol-4-ylmethoxy)cyclohexyloxy]-2-(2-propynyl-oxy)propionic acid] | 43 nM
6 | Cc1cccc(-c2nc(CO[C@H]3CCC[C@@H](OCC(OC/C=C/c4ccccc4)C(=O)O)C3)c(C)o2)c1 (stereo partly drawn) [Example 25, 3-[(1R,3S)-3-(5-Methyl-2-m-tolyloxazol-4-ylmethoxy)cyclohexyloxy]-2-(3-phenyl-2-propenyloxy)propionic acid] | 6.2 nM
7 | COC(CO[C@@H]1CCC[C@H](OCc2nc(-c3ccc4ccccc4c3)oc2C)C1)C(=O)O (stereo partly drawn) [Example 35, 2-Methoxy-3-{(1R,3S)-3-[5-methyl-2-(3-naphthyl)oxazol-4-ylmethoxy]cyclohexyl-oxy}propionic acid] | 84 nM
8 | COC(CO[C@@H]1CCC[C@H](OCc2nc(-c3ccc(C)cc3C)oc2C)C1)C(=O)O (stereo partly drawn) [Example 36, 2-Methoxy-3-{(1R,3S)-3-[5-methyl-2-(2,4-dimethylphenyl)oxazol-4-ylmethoxy]-cyclohexyloxy}propionic acid] | 14 nM
9 | CCCOC(CO[C@@H]1CCC[C@H](OCc2nc(-c3ccc(C)cc3)oc2C)C1)C(=O)O (stereo partly drawn) [Example 47, 3-{(1R,3S)-3-[5-Methyl-2-(4-methylphenyl)oxazol-4-ylmethoxy]cyclohexyloxy}-2-propoxypropionic acid] | 0.8 nM
10 | CCCOC(CO[C@@H]1CCC[C@H](OCc2nc(-c3cccc(C(F)(F)F)c3)oc2C)C1)C(=O)O (stereo partly drawn) [Example 52, 3-{(1R,3S)-3-[5-Methyl-2-(3-trifluoromethylphenyl)oxazol-4-ylmethoxy]cyclohexyl-oxy}-2-propoxypropionic acid] | 22 nM
11 | CCOC(CO[C@@H]1CCC[C@H](OCc2nc(-c3ccc(OC(F)(F)F)cc3)oc2C)C1)C(=O)O (stereo partly drawn) [Example 60, 2-Ethoxy-3-{(1R,3S)-3-[5-methyl-2-(4-trifluoromethoxyphenyl)oxazol-4-ylmethoxy]-cyclohexyloxy}propionic acid] | 26 nM
12 | Cc1ccc(-c2nc(CO[C@H]3CCC[C@@H](OC[C@@H](OCc4ccc(C(F)(F)F)cc4)C(=O)O)C3)c(C)o2)cc1 [Example 81, (R)-3-[(1R,3S)-3-(5-Methyl-2-(4-methylphenyl)oxazol-4-ylmethoxy)cyclohexyloxy]-2-(4-trifluoromethylbenzyloxy)propionic acid] | 0.6 nM
13 | Cc1cccc(-c2nc(CO[C@H]3CCC[C@@H](OCC(Cc4cccc(C(F)(F)F)c4)C(=O)O)C3)c(C)o2)c1 (stereo partly drawn) [Example 91, 2-[(1R,3S)-3-(5-Methyl-2-m-tolyloxazol4-ylmethoxy)cyclohexyloxymethyl]-3-(3-trifluoromethylphenyl)propionic acid] | 78 nM
